# Peptide text beside a SMILES is read from it. * marks the point of attachment. Biotin = O=C1N[C@H]2[C@H](CS[C@H]2CCCCC(=O)*)N1
# Experiments:
# [1] = molecular target: T1, guinea pig tissue transglutaminase (Cavia cutleri, UniProt P08587); assay: Crosslinking of α2AP13-24 into fibrin by tissue transglutaminase; assay type: biochemical; details: purified tissue transglutaminase (100 nM) added to FXIIIa-deficient fibrinogen
# T1 sequence (P08587 1-690): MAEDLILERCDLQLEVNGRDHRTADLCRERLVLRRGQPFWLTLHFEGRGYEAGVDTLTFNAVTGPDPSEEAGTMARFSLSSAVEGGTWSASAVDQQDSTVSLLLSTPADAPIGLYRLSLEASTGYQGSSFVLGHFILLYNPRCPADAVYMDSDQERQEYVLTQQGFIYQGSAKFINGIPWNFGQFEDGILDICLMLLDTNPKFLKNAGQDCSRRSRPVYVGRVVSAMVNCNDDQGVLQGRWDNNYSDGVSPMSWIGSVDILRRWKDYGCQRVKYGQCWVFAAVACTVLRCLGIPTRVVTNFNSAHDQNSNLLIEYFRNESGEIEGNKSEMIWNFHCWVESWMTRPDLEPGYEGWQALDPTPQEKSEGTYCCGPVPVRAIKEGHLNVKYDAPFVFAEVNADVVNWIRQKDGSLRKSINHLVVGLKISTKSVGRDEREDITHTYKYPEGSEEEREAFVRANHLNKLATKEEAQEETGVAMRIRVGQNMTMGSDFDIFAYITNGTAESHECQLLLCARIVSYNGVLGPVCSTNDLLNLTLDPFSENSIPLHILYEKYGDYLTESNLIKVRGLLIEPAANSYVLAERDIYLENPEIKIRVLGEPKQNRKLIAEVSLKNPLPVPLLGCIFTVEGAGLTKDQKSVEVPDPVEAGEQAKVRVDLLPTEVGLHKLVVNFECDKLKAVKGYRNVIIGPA
# Experimental: Fibrin clots (50 μl) were prepared in duplicate by mixing FXIII-free fibrinogen (2 mg/ml final), α2AP13-24 (SEQ ID NO:2; 0.5 mM final), CaCl2 (2 mM final), human plasma FXIII (100 nM/L final) and guinea pig tissue transglutaminase (100 nM/L final) and thrombin (1 U/ml final) and incubating at 37° C. for 2 hours. The crosslinking of α2AP13-24 was detected as described above.
# FXIIIa = molecular target: T2, FXIIIa (Homo sapiens, UniProt P00488); assay: Dose-dependent crosslinking of α2AP13-24 into fibrin clots; assay type: biochemical; details: fibrin clots, compared to control clots
# T2 construct: purchased American Diagnostica
# T2 sequence (P00488 39-732 limits assumed): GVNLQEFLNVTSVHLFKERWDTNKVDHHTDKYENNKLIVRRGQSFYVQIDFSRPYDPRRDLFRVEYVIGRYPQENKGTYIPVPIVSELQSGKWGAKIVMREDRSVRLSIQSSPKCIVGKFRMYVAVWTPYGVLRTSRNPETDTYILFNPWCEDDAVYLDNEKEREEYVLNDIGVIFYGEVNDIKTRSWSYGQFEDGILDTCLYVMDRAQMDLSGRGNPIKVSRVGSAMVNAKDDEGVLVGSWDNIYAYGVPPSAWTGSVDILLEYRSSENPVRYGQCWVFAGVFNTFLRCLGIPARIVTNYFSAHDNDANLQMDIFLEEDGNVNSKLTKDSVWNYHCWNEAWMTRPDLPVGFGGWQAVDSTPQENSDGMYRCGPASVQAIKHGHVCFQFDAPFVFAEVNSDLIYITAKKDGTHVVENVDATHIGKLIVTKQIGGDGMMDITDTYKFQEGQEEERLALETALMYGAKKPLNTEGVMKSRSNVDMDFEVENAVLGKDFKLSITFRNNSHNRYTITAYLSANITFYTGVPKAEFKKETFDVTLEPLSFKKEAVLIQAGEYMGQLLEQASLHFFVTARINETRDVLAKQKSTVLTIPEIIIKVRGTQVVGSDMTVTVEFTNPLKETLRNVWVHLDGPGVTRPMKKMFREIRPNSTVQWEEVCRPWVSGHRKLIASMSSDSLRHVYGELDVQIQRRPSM
# Experimental: Experiments were performed to determine how long FXIIIa in clots could crosslink various substrates such as human ^125I -α2AP, α2AP13-24 (SEQ ID NO:2), and 5-(biotinamido)pentylamine, into fibrin. In a typical experiment, clots were prepared (50 μl final volume) in duplicate by combining fibrinogen (2 mg/ml final), CaCl2 (2 mM final), buffer (Tris-buffered saline pH 7.4) and thrombin (1 U/ml) and incubating at 37° C. Synchronous with the addition of thrombin, or up to 240 minutes afterwards, the FXIIIa substrates 5-(biotinamido)pentylamine (0.5 mM final), ^125I -α2AP (70 μg/ml final), and α2AP13-24 (0 to 1 mM final) were mixed and added to the clot. […] Crosslinked ^125I-α2AP was detected and quantitated by phosphorimaging. Samples containing crosslinked α2AP13-24 and pentylamine substrates were electroblotted to PVDF membranes and detected by ^125I-streptavidin followed by phosphorimaging or by streptavidin-peroxidase followed by the developing agents 5-bromo-4-chloro-3-indolyl phosphate-nitro blue tetrazolium using methods known in the art. In experiments examining the effect of specific amino acid residues on the crosslinking of the α2AP13-24 peptide (SEQ ID NO:2) to fibrin, crosslinking was detected by immunoblotting with an anti-peptide antibody directed against this epitope followed by ^125I-protein A and phosphorimaging. […]
smiles,measurement,setting,value
"CC(C)C[C@H](NC(=O)[C@H](CC(C)C)NC(=O)[C@@H](NC(=O)[C@H](CC(C)C)NC(=O)[C@@H]1CCCN1C(=O)[C@H](CO)NC(=O)[C@@H](NC(=O)[C@H](CCC(N)=O)NC(=O)[C@H](CCC(=O)O)NC(=O)[C@H](CCC(N)=O)NC(=O)[C@@H](N)CC(N)=O)C(C)C)[C@@H](C)O)C(=O)N[C@@H](CCCCNC(=O)CCCC[C@@H]1SC[C@@H]2NC(=O)N[C@@H]21)C(=O)O [α2AP13-24, NQEQVSPLTLLK] (H-NQEQVSPLTLLK(Biotin)-OH)",crosslinking of peptide to fibrin,[1],slight increase in crosslinking
same,lowest concentration at which crosslinking is seen,FXIIIa,1.3 µM

# Reference: patent US6534035B1, “Methods of inhibiting clot formation” (President and Fellows of Harvard College, priority 1998, dated 2003)
